Active and inactive are the calls of the source. The rule behind the calls is not given here.

The nature of data set [1]: (§1) Inhibition of ER dependent NF-kappaB expression in ER expressing HAECT1 cells by luciferase reporter gene assay. The conditions noted are these: Homo sapiens. Type of data set: cell-based. For orientation: Reporter assays use an easily measured gene product as a stand-in for the process of interest.
Data set [2] relates to HAECT1. Put plainly: Inhibition of ER dependent NF-kappaB expression in ER expressing HAECT1 cells at 10 uM by luciferase reporter gene assay relative to E2. Type of data set: cell-based. The conditions noted are these: Homo sapiens.
Data set [3] can be described thus: (§2) Inhibition of ER dependent creatine kinase expression in ER expressing HAECT1 cells. In kind it is cell-based. Particulars: Homo sapiens.
Data set [4] relates to HAECT1. The data set is described as follows: Inhibition of ER dependent creatine kinase expression in ER expressing HAECT1 cells at 10 uM relative to E2. In kind it is cell-based. The conditions noted are these: Homo sapiens.
In data set [5] the test system is HAECT1. Described as §2. Type of data set: cell-based. Particulars: Homo sapiens.
The nature of data set [6]: Inhibition of ER dependent IL6 expression in ER expressing HAECT1 cells. Type of data set: cell-based. Particulars: Homo sapiens.
Data set [7] concerns HAECT1. Put plainly: Inhibition of ER dependent IL6 expression in ER expressing HAECT1 cells at 10 uM relative to E2. In kind it is cell-based. The conditions noted are these: Homo sapiens.
Data set [8] concerns HAECT1. The data set is described as §1. The conditions noted are these: Homo sapiens. In kind it is cell-based.
Data set [9] concerns HAECT1. The data set is described as follows: Inhibition of ER dependent NF-kappaB expression in ER expressing HAECT1 cells at 1 uM by luciferase reporter gene assay. Particulars: Homo sapiens. Type of data set: cell-based.
Data set [10] concerns Mus musculus. Put plainly: Inhibition of NFkB mediated RANTES gene expression in C57BL/6 mouse at 5 mg/kg/day, po after 5 weeks. Type of data set: functional. Particulars: C57BL/6, 840 h.
In data set [11] the test system is Mus musculus. The data set is described as follows: Inhibition of NFkB mediated VCAM gene expression in C57BL/6 mouse at 5 mg/kg/day, po after 5 weeks. In kind it is functional. The conditions noted are these: C57BL/6, 840 h.
In data set [12] the test system is Mus musculus. The data set is described as follows: Inhibition of NFkB mediated MHC gene expression in C57BL/6 mouse at 5 mg/kg/day, po after 5 weeks. The conditions noted are these: C57BL/6, 840 h. Type of data set: functional.
For data set [13], the system named is Mus musculus. The data set is described as follows: Inhibition of NFkB mediated TNFalpha gene expression in C57BL/6 mouse at 5 mg/kg/day, po after 5 weeks. Particulars: C57BL/6, 840 h. In kind it is functional.
Data set [14] concerns Mus musculus. Put plainly: Increase in uterine wet weight in C57BL/6 mouse at 5 mg/kg/day, po after 5 days relative to control. In kind it is functional.
Data set [15] has as its system Rattus norvegicus. The data set is described as follows: Inhibition of adjuvant-induced arthritis in Lewis rat assessed as improvement in synovial scoring at 0.3 mg/kg/day, po. In kind it is functional. Further details: scale not given: the % may be the effect or the level left.
The target in data set [16] is T1, Estrogen receptor (Homo sapiens, UniProt P03372).
T1 sequence (P03372 whole entry): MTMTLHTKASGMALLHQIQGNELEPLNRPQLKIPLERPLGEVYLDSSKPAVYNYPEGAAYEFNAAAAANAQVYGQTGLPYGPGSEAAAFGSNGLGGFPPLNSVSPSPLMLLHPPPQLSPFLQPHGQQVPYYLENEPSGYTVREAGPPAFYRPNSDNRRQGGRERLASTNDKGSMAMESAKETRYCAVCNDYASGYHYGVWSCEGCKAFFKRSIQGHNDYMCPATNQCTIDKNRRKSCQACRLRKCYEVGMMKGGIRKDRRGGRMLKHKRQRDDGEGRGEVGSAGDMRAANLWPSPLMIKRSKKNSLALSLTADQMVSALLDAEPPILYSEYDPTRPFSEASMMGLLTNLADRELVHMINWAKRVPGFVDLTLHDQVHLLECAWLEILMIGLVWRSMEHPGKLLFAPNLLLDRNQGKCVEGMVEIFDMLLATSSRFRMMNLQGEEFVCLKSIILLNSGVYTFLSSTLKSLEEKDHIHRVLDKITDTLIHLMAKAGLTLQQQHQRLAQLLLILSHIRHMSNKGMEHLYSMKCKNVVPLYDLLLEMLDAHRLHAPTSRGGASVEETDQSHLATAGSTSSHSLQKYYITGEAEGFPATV
Put plainly: Displacement of [3H]E2 from human ERalpha ligand binding domain. For orientation: Displacement assays read how much labelled ligand stays bound in the presence of the test substance.

Data set [17] has as its target Estrogen receptor beta (Homo sapiens, UniProt Q92731). The data set is described as follows: Displacement of [3H]E2 from human ERbeta ligand binding domain.
Data set [18] deals with Mus musculus. The data set is described as follows: Inhibition of NFkB mediated RANTES gene expression in C57BL/6 mouse at 5 mg/kg/day, po after 5 weeks relative to 17-alpha-ethinyl-17beta-estradiol. In kind it is functional. More on the design: scale not given: the % may be the effect or the level left.
The test system of data set [19] is Mus musculus. The data set is described as follows: Inhibition of NFkB mediated VCAM gene expression in C57BL/6 mouse at 5 mg/kg/day, po after 5 weeks relative to 17-alpha-ethinyl-17beta-estradiol. Further details: scale not given: the % may be the effect or the level left. Type of data set: functional.
Data set [20] has as its system Mus musculus. Put plainly: Inhibition of NFkB mediated MHC gene expression in C57BL/6 mouse at 5 mg/kg/day, po after 5 weeks relative to 17-alpha-ethinyl-17beta-estradiol. More on the design: scale not given: the % may be the effect or the level left. In kind it is functional.
Data set [21] concerns Mus musculus. The data set is described as follows: Inhibition of NFkB mediated TNFalpha gene expression in C57BL/6 mouse at 5 mg/kg/day, po after 5 weeks relative to 17-alpha-ethinyl-17beta-estradiol. Type of data set: functional. Further details: scale not given: the % may be the effect or the level left.
The subject of data set [22] is Rattus norvegicus. Put plainly: Stimulation of uterine wet weight in Sprague-Dawley rat at 2 mg/kg/day. Type of data set: functional, organism-based.
For data set [23], the system named is Rattus norvegicus. The data set is described as follows: Inhibition of 17-alpha-ethinyl-17beta-estradiol induced uterine wet weight in Sprague-Dawley rat at 2 mg/kg/day. Type of data set: functional, organism-based.
In data set [24] the test system is Plasma. Put plainly: Stability in mouse plasma assessed as hydrolysis after 4 hr at 37 deg C. More on the design: scale not given: the % may be the effect or the level left. Type of data set: ADME, cell-free.
In data set [25] the test system is Plasma. The data set is described as follows: Stability in mouse plasma assessed as hydrolysis after 24 hr at 37 deg C. Type of data set: ADME, cell-free. Further details: scale not given: the % may be the effect or the level left.

Sequence of Estrogen receptor beta (Q92731 whole entry, the tested form may be a part): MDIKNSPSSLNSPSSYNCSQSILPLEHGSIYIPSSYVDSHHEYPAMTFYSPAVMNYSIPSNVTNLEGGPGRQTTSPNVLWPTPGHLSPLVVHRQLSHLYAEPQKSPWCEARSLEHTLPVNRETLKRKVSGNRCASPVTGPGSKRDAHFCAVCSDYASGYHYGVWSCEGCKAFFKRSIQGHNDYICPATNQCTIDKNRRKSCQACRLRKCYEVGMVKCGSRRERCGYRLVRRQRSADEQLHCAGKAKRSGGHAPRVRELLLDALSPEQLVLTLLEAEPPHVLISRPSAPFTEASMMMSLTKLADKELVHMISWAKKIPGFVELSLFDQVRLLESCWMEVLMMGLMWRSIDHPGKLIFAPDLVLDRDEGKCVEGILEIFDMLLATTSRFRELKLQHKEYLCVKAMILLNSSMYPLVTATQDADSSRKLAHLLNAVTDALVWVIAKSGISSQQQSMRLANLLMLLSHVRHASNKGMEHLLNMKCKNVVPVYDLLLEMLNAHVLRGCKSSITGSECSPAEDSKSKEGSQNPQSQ

On to `CCOC(=O)C(C#N)C(c1ccccc1SC)c1cccc2ccccc12` (configuration not stated), for which 118 nM corresponded to half-maximal inhibition in data set [1] (IC50). Further, the results for the Efficacy in data set [2] and in [4] were 102% and 24%, respectively. Besides, the EC50 (in general, the midpoint of the concentration-response curve) in [3] stood at 197 nM.
Regarding `CCOC(=O)C(C#N)C(c1cccc2ccccc12)c1cccc2ccccc12` (configuration not stated), the IC50 (commonly the midpoint of a concentration-inhibition curve) in data set [1] was determined as 550 nM; in data set [6], 185 nM. For the same compound, the Efficacy in data set [2] came out at 96%; in [7], 91%. In [5], the result was inactive.
In [1], `COc1ccccc1[C@H](c1cccc2ccccc12)[C@@](C)(C#N)C(=O)N1CCCCC1` had an IC50 of 125 nM. For the same compound, the Efficacy is 92% in data set [2] and 37% in [4]. The compound further returned an EC50 in [3] of 259 nM.
In the case of `CCOC(=O)C(C#N)C(c1ccc(OC)cc1OC)c1cccc2ccccc12` (configuration not stated), the result in data set [8] and in data set [5] was inactive.
In data set [1], `N#CC(C(N)=O)C(c1cccc2ccccc12)c1cccc2ccccc12` (configuration not stated) displayed an IC50 of 1900 nM. In [2], this compound displayed an Efficacy of 55%. Besides, in data set [5], the outcome was inactive.
For `CCOC(=O)C(C#N)C(c1ccccc1F)c1cccc2ccccc12` (configuration not stated), the Efficacy in data set [2] is 32%. Further, in [9], the inhibition (as a rule, the share of the control response that was lost under treatment) amounted to 19%.
As to `COc1ccccc1[C@H](c1cccc2ccccc12)[C@@](C)(C#N)C(=O)N1CCC(c2cccc(C(F)(F)F)c2)CC1`, the IC50 was 122 nM in [1], 2430 nM in data set [16] and 1500 nM in data set [17]. Besides, the Efficacy in data set [2] is 94%. In addition, the result in data set [5], in data set [22] and in data set [23] was inactive. Moreover, the inhibition in vivo (in general, the drop in the measured response relative to a control, in per cent) at 5 mg/kg/day is 50% in [10], 48% in data set [11], 42% in data set [12] and 59% in data set [13]. Moreover, in data set [14], the Fold change is recorded as 1. For the same compound, the Activity in data set [15] stood at 50%; in data set [18], 65%; in data set [19], 94%; in [20] it was 86%; in data set [21], 83%.
Regarding `CCOC(=O)C(C)(C#N)C(c1ccccc1[N+](=O)[O-])c1cccc2ccccc12` (configuration not stated), the IC50 in data set [1] came out at 268 nM. For the same compound, the Efficacy in data set [2] was 112%. The result in data set [5] was inactive.
Turning to `CCOC(=O)C(C#N)C(c1cccc(OC)c1)c1cccc2ccccc12` (configuration not stated), the result in data set [8] and in data set [5] was inactive.
For `CCOC(=O)C(C#N)C(c1ccc2ccccc2c1)c1cccc2ccccc12` (configuration not stated), the midpoint of inhibition in data set [1], the IC50, lay at 389 nM. In data set [2], this compound registered an Efficacy of 76%. The outcome in [5] was inactive.
In the same order, the values of `CCOC(=O)C(C)(C#N)C(c1cccc2ccccc12)c1cccc2ccccc12` (configuration not stated) are 206 nM, 96% and “inactive”.
For the compound `CCOC(=O)C(C#N)C(c1ccccc1OC)c1cccc2ccccc12` (configuration not stated), the IC50 in data set [1] is 139 nM. For the same compound, the Efficacy amounted to 90% in data set [2] and 32% in data set [4]. The EC50 in [3] was found to be 233 nM.
For the compound `C#C[C@]1(O)CC[C@H]2[C@@H]3CCc4cc(O)ccc4[C@H]3CC[C@@]21C` [ETHINYL ESTRADIOL], the inhibition in vivo at 5 mg/kg/day is 58% in data set [10], 58% in [11], 64% in [12] and 60% in data set [13]. The compound also returned a Fold change in data set [14] of 4.
In data set [1], `CCOC(=O)C(C)(C#N)C(c1ccccc1SC)c1cccc2ccccc12` (configuration not stated) came in with an IC50 of 327 nM. Moreover, the Efficacy in data set [2] came to 65%. Besides, the result in data set [5] was inactive.
For `N#CC(C(=O)O)C(c1cccc2ccccc12)c1cccc2ccccc12` (configuration not stated), the outcome in data set [8] and in data set [5] was inactive.
`COc1ccccc1C(c1cccc2ccccc12)C(C)(C#N)C(=O)OC(C)(C)C` (configuration not stated) showed an IC50 in [1] of 119 nM. In addition, the results for the Efficacy in [2] and in data set [4] were 94% and 24%, respectively. In addition, the concentration giving a half-maximal response (EC50) in data set [3] amounted to 38 nM. The Stability in data set [24] was 32%; in data set [25] it was 0%.
In data set [2], `CCOC(=O)C(C#N)C(c1cccc2ccccc12)c1ccnc2ccccc12` (configuration not stated) registered an Efficacy of 4%. The compound also displayed an inhibition in data set [9] of 3%.
As to `COc1ccccc1[C@H](c1cccc2ccccc12)[C@@](C)(C#N)C(=O)N1CCN(c2cccc(Cl)c2C)CC1`, half-maximal inhibition in [1] (IC50) required 23 nM. Besides, the Efficacy in data set [2] worked out at 99%; in data set [4], 41%. Further, the EC50 in data set [3] turned out to be 84 nM. The inhibition in vivo at 5 mg/kg/day stood at 35% in data set [10], 24% in [11], 20% in data set [12] and 58% in [13]. Also, the Fold change in data set [14] worked out at 1.1. Moreover, the Activity stood at 45% in [18], 47% in data set [19], 41% in data set [20] and 82% in data set [21].
As for `CCOC(=O)C(C#N)C(c1ccc(C)cc1)c1cccc2ccccc12` (configuration not stated), inhibition in data set [1] was half-maximal at 550 nM (IC50). In addition, the Efficacy in [2] was 64%. Besides, the result in data set [5] was inactive.
The compound `CCOC(=O)C(C#N)C(c1ccccc1C(F)(F)F)c1cccc2ccccc12` (configuration not stated) returned an IC50 in data set [1] of 110 nM. Moreover, the Efficacy in [2] came to 106%; in data set [4] it was 24%. In data set [3], the concentration giving a half-maximal response (EC50) stood at 240 nM.
Regarding `CCOC(=O)C(C#N)C(c1ccccc1)c1cccc2ccccc12` (configuration not stated), the IC50 in data set [1] was found to be 792 nM. Further, the Efficacy in data set [2] was determined as 96%. In addition, the result in data set [5] was inactive.
In turn, `CCOC(=O)C(C)(C#N)C(c1ccccc1OC)c1cccc2ccccc12` (configuration not stated) registered a 50% inhibitory concentration (IC50) in data set [1] of 105 nM. Besides, the Efficacy in data set [2] worked out at 110%; in data set [4], 33%. For the same compound, the EC50 in data set [3] was determined as 98 nM.

The values are drawn from ChEMBL document CHEMBL1137551, “Estrogen receptor dependent inhibitors of NF-kappaB transcriptional activation-1 synthesis and biological evaluation of substituted 2-cyanopropanoic acid derivatives: pathway selective inhibitors of NF-kappaB, a potential treatment for rheumatoid arthritis” (J Med Chem, 2007).
